In one series the test system is human brain organoids. The series is described as follows: TUNEL assay in human brain organoids. In kind it is cell-based. The procedure:
60 days old human brain organoids with an estimated cell number of 2.5x10^6 were preincubated with DMSO or 250 nM of PAV-174 for 1h (final DMSO concentration was 0.5%). Then organoids were infected with HSV-1 at an MOI of 0.1 or 1.0. At the next day the medium was renewed and new compound was added. After another 24h, the organoids were washed two times with PBS and then either fixed with 4% PFA at 4°C overnight (for immunocytochemistry and TUNEL assay) or lysed with cold RIPA buffer (50 mM Tris-HCL, pH 7.4, 1% NP-40, 0.5% Na-deoxycholate, 0.1% SDS, 150 mM NaCl, 5 mM EDTA, 50 mM NaF) plus 1X Protease inhibitor cocktail (Roche) and phosphatase inhibitor cocktail (Sigma) followed by 4x sonication for 30s using a Misonix ultrasonic water bath at 100% amplitude. Protein concentration was determined with the DC Protein Assay (Bio-Rad). For immunocytochemistry and TUNEL assay fixed organoids were embedded in paraffin and section of 5 μm were prepared.
Apoptotic cells in sections of brain organoids were detected by TdT-mediated dUTP-biotin nick end labeling (TUNEL) using the DeadEnd Fluorometric TUNEL System (Promega) according to the manufacturers recommendations. At least three 5-μm sections of the brain organoids were analyzed by taking at least 10 images of each organoid. Dead cells were counted using Fiji/ImageJ (NIH).

The subject of another series is wt-MIF and MIF-C80W. Put plainly: SEC-HPLC-MALS of MIF with or without compound. The arrangement: species or system human. The note with it: 100 μM MIF, 100 μM PAV-174. The protocol: The samples for SEC-HPLC-MALS were 100 μM of MIF (WT or mutant C80W) in 20 mM phosphate buffer, with or without compound PAV-174 (100 μM).
The HPLC-MALS was performed at 0.5 mL/min and 25°C with an Agilent 1200 series HPLC system and a size exclusion column TSKgel G2000SWXL from Tosoh bioscience. The detection was performed recording the UV absorbance at 280 nm with the HPLC detector and the light scattering with a miniDawn Treos spectrometer from Wyatt. The molecular weight of the detected species is calculated using the extinction coefficients at 280 nm (12950 M^−1 cm^−1 for WT and 18450 M^−1 cm^−1 for C80W), absorbance at 280 nm and the Rayleigh ratio using the built-in function in Astra software.
On the technique in general: In gel filtration, larger molecules generally elute earlier.

In series [1] the target is T1, D-dopachrome tautomerase (D-DT) (Homo sapiens, UniProt P30046).
T1 construct: Lysates derived from SH-SY5Y-tau-P301S control; endogenous in cells; host or cells: SH-SY5Y-tau-P301S control and MIF-ko cell lysates
Put plainly: Drug resin affinity chromatography (DRAC), D-DT. In kind it is binding. The note with it: SH-SY5Y-tau-P301S lysates. The procedure: For drug resin affinity chromatography (DRAC), supernatant of cell lysates or brain extracts were supplemented with 1 mM of ribonucleoside triphosphates (ATP, GTP, CTP, UTP; NEB), 10 mM creatine phosphate (Sigma) and 10 μL/mL of a 5 mg/mL stock solution of creatine kinase (Sigma). The samples were then loaded onto 20 μL of compound-coupled resin that were equilibrated with PBB-buffer (plus supplements). After one hour of incubation at 26°C, the beads were washed with PBB (100x bed volume). Bound proteins were then eluted either with 200 μM PAV-645 (pig brain) or 100 μM free compound (human brain samples; cell lysates) in the same buffer used as competitor solution or for stripping 1% SDS or 8M urea (cell lysates) for 1h. All elutions were kept frozen until further analysis.
Figure S3. PAV-17 4 reduces ta u phosphorylation al s o in the abs enc e of HSV-1-infection in a MIF and dose dependent manner. Rel a ted to Figure 3
(A) SH-SY5Y-tau-P301S cel ls could efficiently been infected with HSV-1. The cel ls we re infected with increasing MOIs (0 .0 3 to 3. 0 ) of HSV-1 an d then lysed af t er 6h , 9h , 16 h or 24 h. […]
(E) Expression of MIF wa s no t mo du late d up on infection with HSV-1. […] The di ag ram di splays the quantification of MIF normalized to GAPDH derived from three in de pe nd en t exper iments (n =3). […]

The values that follow come from paper PMC12866179, “Oxidized MIF is an Alzheimer’s disease drug target relaying external risk factors to tau pathology” (Cell Reports Medicine, 2025).

Structures are written as SMILES.

Turning to `CCc1cc(N2CCCC2)cc2[s+]c3cc(N4CCCC4)cc(C)c3nc12.[I-]` [PAV-174, 3,7-Di(pyrrolidine-1-yl) 1-ethyl-9-methyl-phenothiazin-5-ium iodide], the “induction of apoptosis in human brain organoids” value in the series on human brain organoids is “no induction of apoptosis”. For the same compound, the “cell toxicity mediated by HSV-1 infection (TUNEL-positive cells)” value in the series on human brain organoids (HSV-1-infected brain organoids) is listed as “lowered cell toxicity mediated by HSV-1 infection”. The “effect on monomer-trimer equilibrium / oligomerization of MIF” value with wt-MIF and MIF-C80W was “does not perturb the monomer-trimer equilibrium”.

As for `[I-].c1cc2nc3ccc(N4CCCC4)cc3[s+]c2cc1N1CCCC1` [PAV-617, 3,7-Di(pyrrolidine-1-yl)phenothiazine-5-ium iodide], in series [1], the “binding of / interaction with D-DT” value was “no bi nd ing of D-DT”.
